Data set [1] relates to laboratory strain of HIV-1. The experiment in a line: Antiviral Activity Against HIV (AV), p24 in infected activated primary T cells. The class given is cell-based. Particulars: for antiviral and antiproliferative activity and cytotoxicity profile / anti-HIV and cytotoxicity profile: summary in words; for IC50: read-out: AV50, Table 5. The protocol:
Antiviral Activity Against HIV (AV)
Activated primary T cells are infected with a laboratory strain of HIV-1, then cultured and exposed to different concentrations of the test compounds. HIV replication is analysed by measuring the viral protein p24 and expressed as percentage of untreated control. Inhibition of viral replication (AV) is then calculated (AV=100 minus the % p24 compared to control, AV of control=0%). Inhibitory concentration 50% for antiviral activity (AV50) is calculated.

Data set [2] addresses human CDK9/CyclinT kinase complex (Homo sapiens (Human), UniProt P50750). The experiment in a line: In Vitro CDK9/CyclinT Assay (IMAP fluorescent polarization). Format: biochemical. Put shortly:
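Phosphorylation of 400 nM TAMRA-Rbtide (15-mer retinoblastoma-derived peptide) by 5 nM CDK9/CyclinT with 12 μM ATP (=Kmapp) in 20 mM MOPS pH 7, 1 mM DTT, 10 mM MgCl2, 0.01% Tween 20. Reaction run 1 hour at room temperature, stopped with IMAP beads; read by fluorescence polarization.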

Another data set has as its system Primary T cells. The data set is described as follows: Cytotoxicity, viability by flow cytometry. Format: cell-based. As for the experimental part:
Primary T cells are cultured and treated with different concentrations of the test compound. Viability is analysed by measuring through flow cytometry based techniques the percentage of viable cells, compared to untreated control=100%).
For orientation: In flow cytometry, cells or beads pass a laser one at a time.

The mark [3] stands for this setting: Table 4, toxic dose 50%, viable cells.

Like-named read-outs stand apart in the source and are kept apart here.

human CDK9/CyclinT kinase complex, sequence (P50750 whole entry): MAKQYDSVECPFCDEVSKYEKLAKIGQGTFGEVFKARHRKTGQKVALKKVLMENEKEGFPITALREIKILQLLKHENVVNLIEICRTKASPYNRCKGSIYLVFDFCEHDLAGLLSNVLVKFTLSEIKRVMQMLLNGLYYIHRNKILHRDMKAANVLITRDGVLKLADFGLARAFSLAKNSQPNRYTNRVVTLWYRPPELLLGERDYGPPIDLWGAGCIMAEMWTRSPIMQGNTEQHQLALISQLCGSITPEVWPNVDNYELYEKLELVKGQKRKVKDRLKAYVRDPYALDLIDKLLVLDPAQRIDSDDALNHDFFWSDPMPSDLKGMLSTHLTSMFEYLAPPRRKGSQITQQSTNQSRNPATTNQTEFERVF
human CDK9/CyclinT kinase complex, sequence (O60563 whole entry partner): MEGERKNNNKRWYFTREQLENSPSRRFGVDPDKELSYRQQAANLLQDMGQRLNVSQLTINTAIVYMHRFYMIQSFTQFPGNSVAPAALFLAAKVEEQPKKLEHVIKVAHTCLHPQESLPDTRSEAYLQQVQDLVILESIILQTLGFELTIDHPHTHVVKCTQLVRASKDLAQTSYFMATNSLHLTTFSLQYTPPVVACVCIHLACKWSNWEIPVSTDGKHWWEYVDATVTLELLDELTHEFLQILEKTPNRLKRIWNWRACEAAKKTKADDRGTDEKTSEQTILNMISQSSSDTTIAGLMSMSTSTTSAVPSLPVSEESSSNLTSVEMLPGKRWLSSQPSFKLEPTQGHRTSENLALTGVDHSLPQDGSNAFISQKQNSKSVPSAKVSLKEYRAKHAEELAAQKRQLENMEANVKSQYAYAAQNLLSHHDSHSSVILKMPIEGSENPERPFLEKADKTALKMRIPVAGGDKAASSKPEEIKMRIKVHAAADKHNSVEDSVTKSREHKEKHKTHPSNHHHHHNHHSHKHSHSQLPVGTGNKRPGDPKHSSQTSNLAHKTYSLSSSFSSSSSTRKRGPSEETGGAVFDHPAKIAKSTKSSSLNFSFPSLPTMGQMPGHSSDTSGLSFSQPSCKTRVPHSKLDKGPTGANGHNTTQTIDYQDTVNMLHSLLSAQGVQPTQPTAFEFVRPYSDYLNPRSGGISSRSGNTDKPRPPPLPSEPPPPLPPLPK

For the compound `COc1ccc(Nc2cc(-c3ccccc3OC)ncn2)cc1O` [Example 32, 2-Methoxy-5-(6-(2-methoxyphenyl)pyrimidin-4-ylamino)phenol], in data set [1], the “antiviral and antiproliferative activity and cytotoxicity profile” value was “good antiviral and antiproliferative activity and a good cytotoxicity profile”. The compound further yielded an IC50 in data set [2] (Table 1) of under 100 nM. In addition, the “TD50” value with Primary T cells turned out to be 20 µM.
Consider `CCOc1ccc(Nc2cc(-c3ccccc3OC)ncn2)cc1C(N)=O` [Example 111, 2-Ethoxy-5-[6-(2-methoxy-phenyl)-pyrimidin-4-ylamino]-benzamide], for which the “antiviral and antiproliferative activity and cytotoxicity profile” value in data set [1] is “good antiviral and antiproliferative activity and a good cytotoxicity profile”. The same compound returned an IC50 in data set [2] (Table 1) of under 1000 nM. Further, the “TD50” value with Primary T cells turned out to be 12 µM.
On to `CCOc1ccc(F)cc1-c1cc(Nc2ccc(OC)c(C(N)=O)c2)ncn1` [Example 131, 5-[6-(2-Ethoxy-5-fluoro-phenyl)-pyrimidin-4-ylamino]-2-methoxy-benzamide], for which the “antiviral and antiproliferative activity and cytotoxicity profile” value in data set [1] was “good antiviral and antiproliferative activity and a good cytotoxicity profile”. In addition, the IC50 in data set [2] (Table 1) is under 1000 nM. In addition, the “TD50” value in the data set on Primary T cells is 2 µM.
Consider `COc1cc(F)c(Nc2cc(-c3cc(F)ccc3OC)ncn2)cc1C(N)=O` [Example 144, 4-Fluoro-5-[6-(5-fluoro-2-methoxy-phenyl)-pyrimidin-4-ylamino]-2-methoxy-benzamide], for which, in data set [1], the “antiviral and antiproliferative activity and cytotoxicity profile” value is “good antiviral and antiproliferative activity and a good cytotoxicity profile”. Besides, the IC50 in data set [2] is under 1000 nM. Besides, in the data set with Primary T cells, the “TD50” value stood at 12 µM.
For the compound `CCOc1ccccc1-c1cc(Nc2cc(C(N)=O)c(OC)cc2F)ncn1` [Example 145, 5-[6-(2-Ethoxy-phenyl)-pyrimidin-4-ylamino]-4-fluoro-2-methoxy-benzamide], the “antiviral and antiproliferative activity and cytotoxicity profile” value in data set [1] was “good antiviral and antiproliferative activity and a good cytotoxicity profile”. The compound also displayed an IC50 in data set [2] of under 1000 nM. In the data set on Primary T cells, the “TD50” value worked out at 15 µM.
Turning to `COc1ccc(Nc2cc(-c3ccccc3OC)ncn2)cc1CN` [Example 43, N-(3-(Aminomethyl)-4-methoxyphenyl)-6-(2-methoxyphenyl)pyrimidin-4-amine], in data set [1], the IC50 was over 1000 nM; the “antiviral and antiproliferative activity and cytotoxicity profile” value is “good antiviral and antiproliferative activity and a good cytotoxicity profile”. Also, the IC50 in data set [2] is under 1000 nM. The “TD50” value in the data set on Primary T cells was found to be 2 µM.
With `COc1ccc(Nc2cc(-c3cc(F)ccc3OC)ncn2)cc1N` [Example 75, N^1-[6-(5-Fluoro-2-methoxy-phenyl)-pyrimidin-4-yl]-4-methoxy-benzene-1,3-diamine], the “antiviral and antiproliferative activity and cytotoxicity profile” value in data set [1] was “good antiviral and antiproliferative activity and a good cytotoxicity profile”. The IC50 in data set [2] (Table 1) is under 1000 nM. The “TD50” value in the data set on Primary T cells was 10 µM.
`CCOc1cc(F)ccc1-c1cc(Nc2ccc(OC)c(N)c2)ncn1` [Example 73, N^1-[6-(2-Ethoxy-4-fluoro-phenyl)-pyrimidin-4-yl]-4-methoxy-benzene-1,3-diamine]: the “antiviral and antiproliferative activity and cytotoxicity profile” value in data set [1] is “good antiviral and antiproliferative activity and a good cytotoxicity profile”. The compound further registered an IC50 in data set [2] (Table 1) of under 1000 nM. The “TD50” value in the data set on Primary T cells came out at 6 µM.
Consider `COc1ccc(Nc2cc(-c3ccccc3OC)ncn2)cc1CN1C(=O)c2ccccc2C1=O` [Example 3, 2-(2-Methoxy-5-(6-(2-methoxyphenyl)pyrimidin-4-ylamino)benzyl)isoindoline-1,3-dione], for which the IC50 in data set [1] is over 1000 nM; in data set [2] it was under 1000 nM. The “TD50” value in the data set on Primary T cells (setting [3]) and with Primary T cells (Table 5) was over 5 µM each time.
In the case of `COc1ccccc1-c1cc(Nc2ccc(N(C)C)c(Cn3cnc4ccccc43)c2)ncn1` [Example 42, 2-((1H-Benzo[d]imidazol-1-yl)methyl)-N4-(6-(2-methoxyphenyl)pyrimidin-4-yl)-N1,N1-dimethylbenzene-1,4-diamine], the IC50 is over 5000 nM in data set [1] and under 1000 nM in data set [2]. Besides, the “TD50” value with Primary T cells stood at 4 µM.
For the compound `COc1ccccc1-c1cc(Nc2ccc(OC)c([N+](=O)[O-])c2)ncn1` [Example 11, N-(4-Methoxy-3-nitrophenyl)-6-(2-methoxyphenyl)pyrimidin-4-amine], the IC50 in data set [1] was over 1500 nM; in data set [2] (Table 1) it was under 1000 nM; in data set [2] (Table 5), under 1000 nM. Also, the “TD50” value in the data set with Primary T cells is over 1.5 µM.
As for `COc1ccc(Nc2cc(-c3ccccc3OC)ncn2)cc1N` [Example 41, 4-Methoxy-N1-(6-(2-methoxyphenyl)pyrimidin-4-yl)benzene-1,3-diamine], the “antiviral and antiproliferative activity and cytotoxicity profile” value in data set [1] is “good antiviral and antiproliferative activity and a good cytotoxicity profile”. Further, the IC50 in data set [2] is under 1000 nM. For the same compound, the “TD50” value in the data set with Primary T cells came to 8.5 µM.
For the compound `CCOc1ccc(Nc2cc(-c3ccc(F)cc3OC)ncn2)cc1C(N)=O` [Example 112, 2-Ethoxy-5-[6-(4-fluoro-2-methoxy-phenyl)-pyrimidin-4-ylamino]-benzamide], the “antiviral and antiproliferative activity and cytotoxicity profile” value in data set [1] was “good antiviral and antiproliferative activity and a good cytotoxicity profile”. In addition, the IC50 in data set [2] was under 1000 nM. Further, the “TD50” value with Primary T cells came to 10 µM.
For `COc1ccc(Nc2cc(-c3ccc(F)cc3OC)ncn2)cc1O` [Example 123, 5-[6-(4-Fluoro-2-methoxy-phenyl)-pyrimidin-4-ylamino]-2-methoxy-phenol], the “antiviral and antiproliferative activity and cytotoxicity profile” value in data set [1] is “good antiviral and antiproliferative activity and a good cytotoxicity profile”. The compound further gave an IC50 in data set [2] (Table 1) of under 1000 nM. In addition, in the data set with Primary T cells, the “TD50” value was found to be 7 µM.
For the compound `COc1ccc(Nc2cc(-c3cc(F)ccc3OC)ncn2)cc1C(N)=O` [Example 127, 5-[6-(5-Fluoro-2-methoxy-phenyl)-pyrimidin-4-ylamino]-2-methoxy-benzamide], the “antiviral and antiproliferative activity and cytotoxicity profile” value in data set [1] was “good antiviral and antiproliferative activity and a good cytotoxicity profile”. This compound also registered an IC50 in data set [2] of under 1000 nM. Moreover, in the data set on Primary T cells, the “TD50” value turned out to be 7 µM.
For `COc1ccc(Nc2cc(-c3ccccc3OC)ncn2)cc1C(=O)O` [Example 49, 2-Methoxy-5-[6-(2-methoxy-phenyl)-pyrimidin-4-ylamino]-benzoic acid], the figures for the IC50 in data set [1], in data set [2] (Table 1) and in data set [2] (Table 5) were over 10000 nM, under 1000 nM and under 1000 nM, respectively. The “TD50” value in the data set with Primary T cells was over 10 µM.
As to `CC[C@H](CO)Nc1nc(NCc2ccccc2)c2ncn(C(C)C)c2n1` [Roscovitine, reference compound], the “anti-HIV and cytotoxicity profile” value in data set [1] is on record as “poor”. For the same compound, the “TD50” value in the data set with Primary T cells (setting [3]) worked out at 8 µM.
Consider `CN1CC[C@H](c2c(O)cc(O)c3c(=O)cc(-c4ccccc4Cl)oc23)[C@H](O)C1` [Flavopiridol, reference compound], for which the “anti-HIV and cytotoxicity profile” value in data set [1] is reported as “poor”. The “TD50” value with Primary T cells is 0.1 µM.
In data set [2] (Table 1), `CCOc1cc(F)ccc1-c1cc(Nc2cc(F)c(OC)c(C(N)=O)c2)ncn1` [Example 139, 5-[6-(2-Ethoxy-4-fluoro-phenyl)-pyrimidin-4-ylamino]-3-fluoro-2-methoxy-benzamide] gave an IC50 of under 10000 nM. In the data set on Primary T cells, the “TD50” value is over 20 µM.
Regarding `COc1ccc(Nc2cc(-c3ccccc3OC)ncn2)cc1C(=O)N(C)N` [Example 46, 2-Methoxy-5-[6-(2-methoxy-phenyl)-pyrimidin-4-ylamino]-benzoic acid N-methyl-hydrazide], the IC50 in data set [2] (Table 1) and in data set [2] (Table 5) was under 1000 nM in each case. In addition, the “TD50” value with Primary T cells (setting [3]) and in the data set with Primary T cells (Table 5) was over 10 µM each time.
For `COc1ccc(Nc2cc(-c3ccccc3OCc3ccccc3)ncn2)cc1N` [Example 71, N^1-[6-(2-Benzyloxy-phenyl)-pyrimidin-4-yl]-4-methoxy-benzene-1,3-diamine], the IC50 in data set [2] (Table 1) and in data set [2] (Table 5) was under 1000 nM throughout. Moreover, in the data set on Primary T cells, the “TD50” value is over 10 µM.
On to `COC(=O)Nc1cc(Nc2cc(-c3ccc(F)cc3OC)ncn2)ccc1OC` [Example 118, {5-[6-(4-Fluoro-2-methoxy-phenyl)-pyrimidin-4-ylamino]-2-methoxy-phenyl}-carbamic acid methyl ester], for which the IC50 in data set [2] (Table 1) and in data set [2] (Table 5) was under 1000 nM throughout. Further, the “TD50” value in the data set on Primary T cells (setting [3]) and with Primary T cells (Table 5) was over 2 µM throughout.
`COc1ccc(Nc2cc(-c3ccccc3OC)ncn2)cc1OCc1ccccc1` [Example 36, N-(3-(Benzyloxy)-4-methoxyphenyl)-6-(2-methoxyphenyl)pyrimidin-4-amine] showed an IC50 in data set [2] of under 10000 nM. Also, the “TD50” value with Primary T cells (setting [3]) is over 5 µM.
Turning to `COc1cc(F)ccc1-c1cc(Nc2cc(N)c(OC)c(F)c2)ncn1` [Example 90, 5-Fluoro-N^1-[6-(4-fluoro-2-methoxy-phenyl)-pyrimidin-4-yl]-4-methoxy-benzene-1,3-diamine], the IC50 in data set [2] is under 1000 nM. Further, the “TD50” value with Primary T cells is over 20 µM.
For the compound `COc1cccc(-c2cc(Nc3ccc(OC)c(N)c3)ncn2)c1` [Example 68, 4-Methoxy-N^1-[6-(3-methoxy-phenyl)-pyrimidin-4-yl]-benzene-1,3-diamine], the IC50 in data set [2] (Table 1) was over 10000 nM. In the data set on Primary T cells, the “TD50” value is over 10 µM.
The matching figures for `COc1ccccc1-c1cc(Nc2ccc(Cl)c(CO)c2)ncn1` [Example 6, (2-Chloro-5-(6-(2-methoxyphenyl)pyrimidin-4-ylamino)phenyl)methanol]: under 1000 nM and over 0.5 µM.

Values taken from US9617225B2 (VIROSTATICS SRL, priority 2012, dated 2017).
